Assay results as given in patent US10308644B2, “Heterocyclic compounds as immunomodulators” (Incyte Corporation, priority 2016, dated 2019).

What follows are compounds tested against PD-1/PD-L1 (Homo sapiens (Human), UniProt Q9NZQ7) (assay: PD-1/PD-L1 Homogeneous Time-Resolved Fluorescence (HTRF) Binding Assay). Conditions: recombinant human PD-1 (3 nM) and PD-L1 (10 nM), 25° C., PBS pH 7.4.
Outline: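 Fc-tagged human PD-1 (25-167, 3 nM) and His-tagged PD-L1 (19-238, 10 nM) preincubated with inhibitor 40 min in PBS pH 7.4, 0.05% Tween-20, 0.1% BSA, 1% DMSO, 25 °C. Binding detected by HTRF (Eu anti-IgG/APC anti-His, 665/620 nm) after 60 min; IC50 from percent control activity.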

PD-1/PD-L1, sequence (Q9NZQ7 19-238): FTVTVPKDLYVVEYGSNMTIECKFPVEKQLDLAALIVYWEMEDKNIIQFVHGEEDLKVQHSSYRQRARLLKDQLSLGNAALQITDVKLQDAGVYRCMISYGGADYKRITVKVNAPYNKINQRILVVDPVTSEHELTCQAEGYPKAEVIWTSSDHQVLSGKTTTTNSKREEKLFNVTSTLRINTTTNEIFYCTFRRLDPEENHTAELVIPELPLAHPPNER

IC50, ≤ 10 nM:
Cc1c(-c2nc3cc(CN4CC[C@@](C)(C(=O)O)C4)cc(C#N)c3o2)cccc1-c1cccc(-c2nc3c(s2)CN(C(=O)CN[C@H]2C[C@@H](O)C2)C3)c1C [Example 228, (R)-1-((7-cyano-2-(3′-(5-(2-(cis-3-hydroxycyclobutylamino)acetyl)-5,6-dihydro-4H-pyrrolo[3,4-d]thiazol-2-yl)-2,2′-dimethylbiphenyl-3-yl)benzo[d]oxazol-5-yl)methyl)-3-methylpyrrolidine-3-carboxylic acid]
Cc1c(-c2nc3c(o2)CN(C(=O)CN2CC[C@H](O)C2)C3)cccc1-c1cccc(-c2nc3cc(CN4CC[C@@H](C(=O)O)C4)cc(C#N)c3o2)c1C [Example 128, (R)-1-((7-cyano-2-(3′-(5-(2-((S)-3-hydroxypyrrolidin-1-yl)acetyl)-5,6-dihydro-4H-pyrrolo[3,4-d]oxazol-2-yl)-2,2′-dimethyl-[1,1′-biphenyl]-3-yl)benzo[d]oxazol-5-yl)methyl)pyrrolidine-3-carboxylic acid]
Cc1c(Nc2nccc3cc(CN4CC[C@@H](O)C4)cnc23)cccc1-c1cccc(-c2nc3cc(CN[C@H]4CC[C@H](C(=O)O)C4)cc(C#N)c3o2)c1C [Example 182, (1S,3S)-3-((7-cyano-2-(3′-(3-(((R)-3-hydroxypyrrolidin-1-yl)methyl)-1,7-naphthyridin-8-ylamino)-2,2′-dimethylbiphenyl-3-yl)benzo [d]oxazol-5-yl)methylamino)cyclopentane carboxylic acid]
Cc1c(-c2nc3cc(CN4CC5(CC(C(=O)O)C5)C4)cc(C#N)c3o2)cccc1-c1cccc(-c2nc3c(s2)CN(C(=O)CN2CC[C@H](O)C2)C3)c1C [Example 233, 2-((7-cyano-2-(3′-(5-(2-((S)-3-hydroxypyrrolidin-1-yl)acetyl)-5,6-dihydro-4H-pyrrolo[3,4-d]thiazol-2-yl)-2,2′-dimethylbiphenyl-3-yl)benzo[d]oxazol-5-yl)methyl)-2-azaspiro[3.3]heptane-6-carboxylic acid]
Cc1c(-c2nc3cc(CN4CC[C@@H](C(=O)O)C4)cc(Cl)c3o2)cccc1-c1cccc(N2CCC(NC3CC3)CC2)c1Cl [Example 44, (R)-1-((7-chloro-2-(2′-chloro-3′-(4-(cyclopropylamino)piperidin-1-yl)-2-methylbiphenyl-3-yl)benzo[d]oxazol-5-yl)methyl)pyrrolidine-3-carboxylic acid]
Cc1c(-c2nc3cc(CN4CC5CC4CC5O)cc(C#N)c3o2)cccc1-c1cccc(NC(=O)c2nc3c(n2C)CCN(CC2CCC(C(=O)O)CC2)C3)c1Cl (stereo not drawn) [Example 270, trans-4-((2-(2-chloro-3′-(7-cyano-5-((5-hydroxy-2-azabicyclo[2.2.1]heptan-2-yl)methyl)benzo[d]oxazol-2-yl)-2′-methylbiphenyl-3-ylcarbamoyl)-1-methyl-6,7-dihydro-1H-imidazo[4,5-c]pyridin-5(4H)-yl)methyl)cyclohexanecarboxylic acid]
Cc1c(-c2nc3cc(CN4CC[C@@H](C(=O)O)C4)cc(C#N)c3o2)cccc1-c1cccc(NC(=O)c2nc3c(n2C)CC(C)NC3)c1Cl (stereo partly drawn) [Example 159, (3R)-1-((2-(2′-chloro-3′-(1,6-dimethyl-4,5,6,7-tetrahydro-1H-imidazo[4,5-c]pyridine-2-carboxamido)-2-methylbiphenyl-3-yl)-7-cyanobenzo[d]oxazol-5-yl)methyl)pyrrolidine-3-carboxylic acid]
Cc1c(-c2nc3cc(CN4CC[C@@](C)(C(=O)O)C4)cc(C#N)c3o2)cccc1-c1cccc(NC(=O)c2nc3c(n2C)CN(C)C3)c1Cl [Example 158, (R)-1-((2-(2′-chloro-3′-(1,5-dimethyl-1,4,5,6-tetrahydropyrrolo[3,4-d]imidazole-2-carboxamido)-2-methylbiphenyl-3-yl)-7-cyanobenzo[d]oxazol-5-yl)methyl)-3-methyl pyrrolidine-3-carboxylic acid]
Cc1c(-c2nc3cc(CN4CC[C@@H](C(=O)O)C4)cc(C#N)c3o2)cccc1-c1cccc(-c2nc3c(s2)CN(C(=O)[C@@H]2CCCN2C)C3)c1C [Example 107, (R)-1-((7-cyano-2-(2,2′-dimethyl-3′-(5-((8)-1-methylpyrrolidine-2-carbonyl)-5,6-dihydro-4H-pyrrolo[3,4-d]thiazol-2-yl)biphenyl-3-yl)benzo[d]oxazol-5-yl)methyl)pyrrolidine-3-carboxylic acid]
Cc1c(Nc2nccc3cc(CN4CC[C@@H](O)C4)cnc23)cccc1-c1cccc(-c2nc3cc(CN[C@H]4C[C@H](C(=O)O)C4)cc(C#N)c3o2)c1C [Example 181, trans-3-((7-cyano-2-(3′-(3-(((R)-3-hydroxypyrrolidin-1-yl)methyl)-1,7-naphthyridin-8-ylamino)-2,2′-dimethylbiphenyl-3-yl)benzo [d]oxazol-5-yl)methylamino)cyclobutane carboxylic acid]
Cc1c(-c2nc3cc(CN4CC[C@@](C)(C(=O)O)C4)cc(C#N)c3o2)cccc1-c1cccc(-c2nc3c(s2)CN(C(=O)CN2CC(O)C2)C3)c1C [Example 227, (R)-1-((7-cyano-2-(3′-(5-(2-(3-hydroxyazetidin-1-yl)acetyl)-5,6-dihydro-4H-pyrrolo[3,4-d]thiazol-2-yl)-2,2′-dimethylbiphenyl-3-yl)benzo[d]oxazol-5-yl)methyl)-3-methylpyrrolidine-3-carboxylic acid]
Cc1c(-c2nc3cc(CN4CC[C@@H](C(=O)O)C4)cc(C#N)c3o2)cccc1-c1cccc(-n2cc3c(n2)CN(C)C3)c1Cl [Example 55, (R)-1-((2-(2′-chloro-2-methyl-3′-(5-methyl-5,6-dihydropyrrolo[3,4-c]pyrazol-2(4H)-yl)biphenyl-3-yl)-7-cyanobenzo[d]oxazol-5-yl)methyl)pyrrolidine-3-carboxylic acid]
Cc1c(Nc2nccc3cc(CN4CC[C@@H](O)C4)cnc23)cccc1-c1cccc(-c2nc3cc(CN4CC[C@@H](C(=O)O)C4)cc(Cl)c3o2)c1C [Example 18, (R)-1-((7-chloro-2-(3′-(3-(((R)-3-hydroxypyrrolidin-1-yl)methyl)-1,7-naphthyridin-8-ylamino)-2,2′-dimethylbiphenyl-3-yl)benzo[d]oxazol-5-yl)methyl)pyrrolidine-3-carboxylic acid]
Cc1c(-c2nc3cc(CN4CC[C@@](C)(C(=O)O)C4)cc(C#N)c3o2)cccc1-c1cccc(-c2nc3c(s2)CN(C(=O)CN(C)[C@@H](C)CO)C3)c1C [Example 226, (R)-1-((7-cyano-2-(3′-(5-(2-(((S)-1-hydroxypropan-2-yl)(methyl)amino)acetyl)-5,6-dihydro-4H-pyrrolo[3,4-d]thiazol-2-yl)-2,2′-dimethylbiphenyl-3-yl)benzo[d]oxazol-5-yl)methyl)-3-methylpyrrolidine-3-carboxylic acid]
Cc1c(-c2nc3cc(CN4CC[C@@](C)(C(=O)O)C4)cc(C#N)c3o2)cccc1-c1cccc(-c2nc3c(s2)CN(C(=O)CN(C)CC2CC2)C3)c1C [Example 219, (R)-1-((7-cyano-2-(3′-(5-(2-((cyclopropylmethyl) (methyl)amino)acetyl)-5,6-dihydro-4H-pyrrolo[3,4-d]thiazol-2-yl)-2,2′-dimethylbiphenyl-3-yl)benzo[d]oxazol-5-yl)methyl)-3-methylpyrrolidine-3-carboxylic acid]
